Reference: ChEMBL document CHEMBL1201862, “PubChem BioAssay data set” (2004)
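Tested at 5 concentrations; 48 h exposure; 96-well plates; endpoints linearly interpolated, else capped at highest concentration. GI50 = concentration required for 50% inhibition of growth.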 Calls of active or inactive are those of the source. No stated cut-off is given here; in the data, active = GI50 up to about 1.1 µM and inactive = higher.

Columns and labels:
Experiment in all cases: NCI-60 cell line screen, 48 h
SN12C = system: SN12C
NCI-H226 = system: NCI-H226
SNB-75 = system: SNB-75
HCC 2998 = system: HCC 2998
Hs-578T = system: Hs-578T
NCI-H522 = system: NCI-H522
SW-620 = system: SW-620
SK-MEL-2 = system: SK-MEL-2
KM12 = system: KM12
CAKI-1 = system: CAKI-1
T47D = system: T47D
OVCAR-5 = system: OVCAR-5
M14 = system: M14
HT-29 = system: HT-29
U-251 = system: U-251
MCF7 = system: MCF7
Malme-3M = system: Malme-3M
ACHN = system: ACHN
COLO 205 = system: COLO 205

Measured: GI50

O=c1ccc(=O)n(-c2ccccc2)[nH]1
inactive: SN12C > 100 µM | NCI-H226 > 100 µM | SNB-75 > 100 µM | HCC 2998 > 100 µM | Hs-578T > 100 µM | NCI-H522 > 100 µM | SW-620 > 100 µM | SK-MEL-2 > 100 µM | KM12 > 100 µM | CAKI-1 > 100 µM | T47D > 100 µM | OVCAR-5 > 100 µM | M14 > 100 µM | HT-29 > 100 µM | U-251 > 100 µM | MCF7 > 100 µM | Malme-3M > 100 µM | ACHN > 100 µM | COLO 205 > 100 µM

CC(=O)Nc1c(C)cc2c(nc3n2CCC3O)c1[N+](=O)[O-] (stereo not given)
inactive: SN12C > 100 µM | NCI-H226 > 100 µM | SNB-75 > 100 µM | HCC 2998 > 100 µM | Hs-578T > 100 µM | NCI-H522 > 100 µM | SW-620 > 100 µM | SK-MEL-2 > 100 µM | KM12 > 100 µM | CAKI-1 > 100 µM | T47D > 100 µM | OVCAR-5 > 100 µM | M14 > 100 µM | HT-29 > 100 µM | U-251 > 100 µM | MCF7 > 100 µM | Malme-3M > 100 µM | ACHN > 100 µM | COLO 205 > 100 µM

O=C1/C(=C/c2ccc(O)c([N+](=O)[O-])c2)CCC/C1=C\c1ccc(O)c([N+](=O)[O-])c1
inactive: SN12C 11.4 µM | NCI-H226 11.6 µM | SNB-75 1.61 µM | HCC 2998 8.69 µM | Hs-578T 4.48 µM | NCI-H522 8.93 µM | SW-620 10.2 µM | SK-MEL-2 11.4 µM | KM12 9.4 µM | CAKI-1 11.5 µM | T47D 14.9 µM | OVCAR-5 15.4 µM | M14 10.8 µM | HT-29 12.3 µM | U-251 9.33 µM | MCF7 12.3 µM | Malme-3M 8.63 µM | ACHN 7.96 µM | COLO 205 13.5 µM

Cc1oc2c(c1C)S(=O)(=O)C(C#N)C(c1ccccc1)N2 (stereo not given)
inactive: SN12C 49.8 µM | NCI-H226 > 100 µM | SNB-75 40.2 µM | HCC 2998 53.8 µM | Hs-578T 30.9 µM | NCI-H522 16.9 µM | SW-620 > 100 µM | SK-MEL-2 61.8 µM | KM12 50.4 µM | CAKI-1 36.1 µM | T47D 62.5 µM | OVCAR-5 91.6 µM | M14 40.4 µM | HT-29 67.6 µM | U-251 55 µM | MCF7 51.5 µM | Malme-3M 37.7 µM | ACHN > 100 µM | COLO 205 29.3 µM

Cc1ccc(S(=O)(=O)N2CCCCN(S(=O)(=O)c3ccc(C)cc3)Cc3ccccc3OCCOCCOc3c4cccc3Cc3cccc5c3OCCOCCOc3ccccc3CN(S(=O)(=O)c3ccc(C)cc3)CCCN(S(=O)(=O)c3ccc(C)cc3)Cc3ccccc3OCCOCCOc3c(cccc3C4)Cc3cccc(c3OCCOCCOc3ccccc3C2)C5)cc1
inactive: SN12C > 100 µM | NCI-H226 > 100 µM | SNB-75 > 100 µM | HCC 2998 > 100 µM | Hs-578T > 100 µM | NCI-H522 78.9 µM | SW-620 > 100 µM | SK-MEL-2 > 100 µM | KM12 > 100 µM | CAKI-1 > 100 µM | T47D > 100 µM | OVCAR-5 > 100 µM | M14 > 100 µM | HT-29 > 100 µM | U-251 > 100 µM | MCF7 > 100 µM | Malme-3M > 100 µM | ACHN > 100 µM | COLO 205 > 100 µM
